Results taken from patent US20250041415A1, “CYTOTOXIC INNATE LYMPHOID CELL AND USES THEREOF” (Umoja Biopharma, Inc., priority 2021, published 2025).

Assays:
[1] = system: PSMA-positive human prostate cancer cells; details: DUPA-(99m)Tc; cited from earlier work
[2] = system: iPSC-derived lymphoid progenitor and precursor cells; test: RACR-driven differentiation and expansion of iCIL cells from Day 26 lymphoid progenitors; format: cell-based, human; details: AP21967 100 nM, no other cytokine
Description: The RACR-system was utilized for differentiation to iPSC-derived CIL cells (iCIL cells). The iPSC cell line ATCC-BXS0117 (ATCC #ACS-1031) was differentiated into lymphoid progenitors through the STEMdiff NK cell kit ([…]® Technologies, #100-0170) as described in Example 2 above, up until the Day 26 timepoint. The percentage of cells containing common lymphoid progenitors (CD45+/CD5+/CD7+), CIL precursors (CD45+/CD5−/CD7+), and early CIL cells (CD45+/CD5−/CD7+/CD56+) is seen in FIG. 3D with ˜50% of the cells presenting as CIL precursors and ˜25% of total cells presenting as early CIL cells. […] Activation beads (#130-094-483) were added to cells at a 2:1 ratio and cells were placed in 37° C. incubator overnight to increase transduction of cells.
The cells were engineered with a polynucleotide encoding the RACR synthetic cytokine as described in Example 1, a Tag (anti-FITC) CAR (SEQ ID NO: 13), and an FRB domain for expression of FRB as a diffusible soluble protein in the engineered cell, in which the components were separated by a cleavable linker. The polynucleotide construct payload is designated Tag (anti-FITC) CAR-P2A-FRB-P2A-RACR. […] An aliquot of cells was collected weekly, counted on the Vicell Blu automated cell counter, and stained for CD16 clone 3G8, CD56 clone HCD56, CD45 clone 2D1. […]

[3] = system: common lymphoid progenitors (iPSC line WTC11); test: RACR-signaling replacing common gamma chain cytokines in CLP to CIL differentiation; format: cell-based, human; details: 4 nM
[4] = system: Vδ2+ T cells transduced with RACR-FRB-mCherry; test: RACR-expansion of blood-derived Vδ2+ T cells; format: cell-based, human; details: 10 nM, days 14 and 21
Description: On day 14, an aliquot of the cells was collected and washed, stained for V32, and RACR transduction was measured by mCherry. Percent Vδ2+ RACR+ cells, as well as number of transduced V32+ cells measured by counting beads was assessed by detection of V82 stain and mCherry via flow cytometry. Similarly, on day 21, an aliquot of cells was again measured for percent and number of Vδ2+ RACR+ cells via flow cytometry.

Row | SMILES | Kd [1] [nM] | expansion (total number of TagCAR positive cells) [2] | percent of RACR-CAR+ CD56+ cells ([3]; Day 40, all four media conditions) | fold change in RACR-CAR+ cells ([3]; media with UM729 alone (None)) | percentage and total number of Vδ2+ RACR+ cells [4]
1 | O=C(O)CC[C@H](NC(=O)N[C@@H](CCC(=O)O)C(=O)O)C(=O)O [DUPA] | 14 | – | – | – | –
2 | CO[C@@H]1C[C@H](C[C@@H](C)C2CC(=O)[C@H](C)/C=C(\C)[C@@H](O)[C@@H](OC)C(=O)[C@H](C)C[C@@H](C)/C=C/C=C/C=C(\C)[C@H](c3c[nH]c4c(C)cccc34)C[C@H]3CC[C@@H](C)[C@@](O)(O3)C(=O)C(=O)N3CCCC[C@H]3C(=O)O2)CC[C@@H]1O (some centres unmarked) [AP21967] | – | sufficient to drive iCIL expansion | increase in the percent of RACR-CAR+ CD56+ cells | largest fold change | increased in both percentage and total number of cells
